Assay results published in patent US12065429B2, “Small molecule modulators of IL-17” (LEO Pharma A/S, priority 2022, dated 2024).
≈ marks a conversion by molar mass, not a printed value.

How the values were obtained:
Solubility assay = format: physicochemical; conditions: 0.067 M phosphate buffer pH 6.5, 24 hours shaking, from 10 mM DMSO stock; for solubility at 24 h: aqueous buffer, kinetic from dmso stock
Method: After centrifugation, the supernatant was analyzed by HPLC-UV. The solubility was defined as the concentration of the test substance in the selected solvent. It was determined by correlation with an external standard calibration curve.

[1] = Human liver microsome (HLM) clearance assay; format: in vitro ADME; conditions: human liver microsomes 0.5 mg/mL, NADPH 1 mM, 0.5 μM compound, 40 min
Method: Example 63: Human Liver Microsome (HLM) Clearance Assay
Samples were taken out before addition of NADPH, and at 5, 10, 20 and 40 minutes thereafter and protein precipitation using cold acetonitrile with added internal standard was performed prior to centrifugation and sample analysis using compound specific LCMS/MS methods. Control incubations in buffer and without NADPH were performed in the same manner. Compound depletion was determined and apparent clearance (CLapp) was calculated.

For `CC(C)n1nccc1C(=O)N[C@H](C(=O)Nc1ccc(-c2c[n+]([O-])ccc2C(F)F)c(F)n1)C(C1CC1)C1CC1` [Example 51, N-[(1S)-1-(dicyclopropylmethyl)-2-[[5-[4-(difluoromethyl)-1-oxido-pyridin-1-ium-3-yl]-6-fluoro-2-pyridyl]amino]-2-oxo-ethyl]-2-isopropyl-pyrazole-3-carboxamide], the solubility at 24 h (Solubility assay) was 25 µg/mL (≈ 46.1 µM) and the “HLM Clapp” value [1] was less than 8 mL/min/kg.
With `Cc1cc(-c2ccc(NC(=O)[C@@H](NC(=O)c3ccnn3C3CCC3)C(C3CC3)C3CC3)nc2F)c(C)[n+]([O-])c1` [Example 25, 2-cyclobutyl-N-[(1S)-1-(dicyclopropylmethyl)-2-[[5-(2,5-dimethyl-1-oxido-pyridin-1-ium-3-yl)-6-fluoro-2-pyridyl]amino]-2-oxo-ethyl]pyrazole-3-carboxamide] the “HLM Clapp” value [1] was 250 mL/min/kg.
For `Cc1c[n+]([O-])cc(-c2ccc(NC(=O)[C@@H](NC(=O)c3ccnn3C(C)C)C(C3CC3)C3CC3)nc2F)c1C` [Example 52, N-[(1S)-1-(dicyclopropylmethyl)-2-[[5-(4,5-dimethyl-1-oxido-pyridin-1-ium-3-yl)-6-fluoro-2-pyridyl]amino]-2-oxo-ethyl]-2-isopropyl-pyrazole-3-carboxamide], the solubility at 24 h (Solubility assay) was 4 µg/mL (≈ 7.68 µM) and the “HLM Clapp” value [1] was less than 8 mL/min/kg.
For `Cc1cc(-c2ccc(NC(=O)[C@@H](NC(=O)c3ccnn3C3CC3)C(C3CC3)C3CC3)nc2F)c(C)[n+]([O-])c1` [Example 27, 2-cyclopropyl-N-[(1S)-1-(dicyclopropylmethyl)-2-[[5-(2,5-dimethyl-1-oxido-pyridin-1-ium-3-yl)-6-fluoro-2-pyridyl]amino]-2-oxo-ethyl]pyrazole-3-carboxamide], the “HLM Clapp” value [1] was less than 8 mL/min/kg.
For `Cc1c(-c2ccc(NC(=O)[C@@H](NC(=O)c3ccnn3C(C)C)C(C3CC3)C3CC3)nc2F)c(C(F)(F)F)cc[n+]1[O-]` (single isomer, unassigned) [Example 54], the solubility at 24 h (Solubility assay) was less than 1 µg/mL and the “HLM Clapp” value [1] was 63 mL/min/kg.
For `Cc1cc(-c2ccc(NC(=O)[C@@H](NC(=O)c3ccnn3CC(F)F)C(C3CC3)C3CC3)nc2F)c(C)[n+]([O-])c1` [Example 24, N-[(1S)-1-(dicyclopropylmethyl)-2-[[5-(2,5-dimethyl-1-oxido-pyridin-1-ium-3-yl)-6-fluoro-2-pyridyl]amino]-2-oxo-ethyl]-2-(2,2-difluoroethyl)pyrazole-3-carboxamide], the “HLM Clapp” value [1] was less than 8 mL/min/kg.
In the case of `Cc1cc(-c2ccc(NC(=O)[C@@H](NC(=O)c3ccnn3C(C)C)C(C3CC3)C3CC3)nc2Cl)c(C)[n+]([O-])c1` [Example 18, N-[(1S)-1-[[6-chloro-5-(2,5-dimethyl-1-oxido-pyridin-1-ium-3-yl)-2-pyridyl]carbamoyl]-2,2-dicyclopropyl-ethyl]-2-isopropyl-pyrazole-3-carboxamide], the solubility at 24 h (Solubility assay) is reported as 26 µg/mL (≈ 48.4 µM) and the “HLM Clapp” value [1] is reported as less than 8 mL/min/kg.
With `Cc1cc(-c2ccc(NC(=O)[C@@H](NC(=O)c3cnnn3C(C)C)C(C3CC3)C3CC3)nc2F)c(C)[n+]([O-])c1` [Example 23, N-[(1S)-1-(dicyclopropylmethyl)-2-[[5-(2,5-dimethyl-1-oxido-pyridin-1-ium-3-yl)-6-fluoro-2-pyridyl]amino]-2-oxo-ethyl]-3-isopropyl-triazole-4-carboxamide] the “HLM Clapp” value [1] was less than 8 mL/min/kg.
In the case of `Cc1cc(-c2ccc(NC(=O)[C@@H](NC(=O)c3ccnn3C(C)C)C(C3CC3)C3CC3)nc2F)c(C2CC2)[n+]([O-])c1` [Example 13, N-[(1S)-2,2-dicyclopropyl-1-[[5-(2-cyclopropyl-5-methyl-1-oxido-pyridin-1-ium-3-yl)-6-fluoro-2-pyridyl]carbamoyl]ethyl]-2-isopropyl-pyrazole-3-carboxamide], the solubility at 24 h (Solubility assay) is reported as 26 µg/mL (≈ 47.6 µM) and the “HLM Clapp” value [1] is reported as 14 mL/min/kg.
For `Cc1c(-c2ccc(NC(=O)[C@@H](NC(=O)c3ccnn3C(C)C)C(C3CC3)C3CC3)nc2F)c[n+]([O-])cc1C(F)F` [Example 48, N-[(1S)-1-(dicyclopropylmethyl)-2-[[5-[5-(difluoromethyl)-4-methyl-1-oxido-pyridin-1-ium-3-yl]-6-fluoro-2-pyridyl]amino]-2-oxo-ethyl]-2-isopropyl-pyrazole-3-carboxamide], the solubility at 24 h (Solubility assay) was 19 µg/mL (≈ 34.1 µM) and the “HLM Clapp” value [1] was less than 8 mL/min/kg.
For `Cc1c(-c2ccc(NC(=O)[C@@H](NC(=O)c3ccnn3C(C)C)C(C3CC3)C3CC3)nc2F)cc(F)c[n+]1[O-]` [Example 2, N-[(1S)-1-(dicyclopropylmethyl)-2-[[6-fluoro-5-(5-fluoro-2-methyl-1-oxido-pyridin-1-ium-3-yl)-2-pyridyl]amino]-2-oxo-ethyl]-2-isopropyl-pyrazole-3-carboxamide], the solubility at 24 h (Solubility assay) was 26 µg/mL (≈ 49.6 µM) and the “HLM Clapp” value [1] was less than 8 mL/min/kg.
In the case of `Cc1cc(-c2ccc(NC(=O)[C@@H](NC(=O)c3ccnn3CC(C)C)C(C3CC3)C3CC3)nc2F)c(C)[n+]([O-])c1` [Example 28, N-[(1S)-1-(dicyclopropylmethyl)-2-[[5-(2,5-dimethyl-1-oxido-pyridin-1-ium-3-yl)-6-fluoro-2-pyridyl]amino]-2-oxo-ethyl]-2-isobutyl-pyrazole-3-carboxamide], the “HLM Clapp” value [1] is reported as greater than 750 mL/min/kg.
In the case of `Cc1c(-c2ccc(NC(=O)[C@@H](NC(=O)c3ccnn3C(C)C)C(C3CC3)C3CC3)nc2F)c(C(F)(F)F)cc[n+]1[O-]` (single isomer, unassigned) [Example 55], the “Solubility at pH 6.5” value (Solubility assay) is reported as less than 1 μg/mL and the “HLM Clapp” value [1] is reported as 41 mL/min/kg.
In the case of `Cc1c(-c2ccc(NC(=O)[C@@H](NC(=O)c3ccnn3C(C)C)C(C3CC3)C3CC3)nc2F)cc(OC(F)F)c[n+]1[O-]` [Example 8, N-[(1S)-1-(dicyclopropylmethyl)-2-[[5-[5-(difluoromethoxy)-2-methyl-1-oxido-pyridin-1-ium-3-yl]-6-fluoro-2-pyridyl]amino]-2-oxo-ethyl]-2-isopropyl-pyrazole-3-carboxamide], the solubility at 24 h (Solubility assay) is reported as 8 µg/mL (≈ 14 µM) and the “HLM Clapp” value [1] is reported as 8 mL/min/kg.
For `Cc1c(-c2ccc(NC(=O)[C@@H](NC(=O)c3ccnn3C(C)C)C(C3CC3)C3CC3)nc2F)cc(C(F)F)c[n+]1[O-]` [Example 49, N-[(1S)-1-(dicyclopropylmethyl)-2-[[5-[5-(difluoromethyl)-2-methyl-1-oxido-pyridin-1-ium-3-yl]-6-fluoro-2-pyridyl]amino]-2-oxo-ethyl]-2-isopropyl-pyrazole-3-carboxamide], the solubility at 24 h (Solubility assay) was 18 µg/mL (≈ 32.3 µM) and the “HLM Clapp” value [1] was less than 8 mL/min/kg.
With `CC(C)n1nccc1C(=O)N[C@H](C(=O)Nc1ccc(-c2ccc[n+]([O-])c2C2CC2)c(F)n1)C(C1CC1)C1CC1` [Example 7, N-[(1S)-2,2-dicyclopropyl-1-[[5-(2-cyclopropyl-1-oxido-pyridin-1-ium-3-yl)-6-fluoro-2-pyridyl]carbamoyl]ethyl]-2-isopropyl-pyrazole-3-carboxamide] the solubility at 24 h (Solubility assay) was 38 µg/mL (≈ 71.3 µM) and the “HLM Clapp” value [1] was less than 8 mL/min/kg.
In the case of `CC(C)n1nccc1C(=O)N[C@H](C(=O)Nc1ccc(-c2c[n+]([O-])ccc2C(F)(F)F)c(F)n1)C(C1CC1)C1CC1` [Example 6, N-[(1S)-1-(dicyclopropylmethyl)-2-[[6-fluoro-5-[1-oxido-4-(trifluoromethyl)pyridin-1-ium-3-yl]-2-pyridyl]amino]-2-oxo-ethyl]-2-isopropyl-pyrazole-3-carboxamide], the solubility at 24 h (Solubility assay) is reported as 5 µg/mL (≈ 8.92 µM) and the “HLM Clapp” value [1] is reported as 14 mL/min/kg.
In the case of `CC(C)n1nccc1C(=O)N[C@H](C(=O)Nc1ccc(-c2c[n+]([O-])ccc2C2CC2)c(F)n1)C(C1CC1)C1CC1` [Example 47, N-[(1S)-2,2-dicyclopropyl-1-[[5-(4-cyclopropyl-1-oxido-pyridin-1-ium-3-yl)-6-fluoro-2-pyridyl]carbamoyl]ethyl]-2-isopropyl-pyrazole-3-carboxamide], the “HLM Clapp” value [1] is reported as less than 8 mL/min/kg.
For `Cc1cc[n+]([O-])c(C)c1-c1ccc(NC(=O)[C@@H](NC(=O)c2ccnn2C(C)C)C(C2CC2)C2CC2)nc1F` [Example 4, N-[(1S)-1-(dicyclopropylmethyl)-2-[[5-(2,4-dimethyl-1-oxido-pyridin-1-ium-3-yl)-6-fluoro-2-pyridyl]amino]-2-oxo-ethyl]-2-isopropyl-pyrazole-3-carboxamide], the solubility at 24 h (Solubility assay) was 74 µg/mL (≈ 142 µM) and the “HLM Clapp” value [1] was 9 mL/min/kg.
With `Cc1cc(-c2ccc(NC(=O)[C@@H](NC(=O)c3ccnn3C(F)F)C(C3CC3)C3CC3)nc2F)c(C)[n+]([O-])c1` [Example 26, N-[(1S)-1-(dicyclopropylmethyl)-2-[[5-(2,5-dimethyl-1-oxido-pyridin-1-ium-3-yl)-6-fluoro-2-pyridyl]amino]-2-oxo-ethyl]-2-(difluoromethyl)pyrazole-3-carboxamide] the “HLM Clapp” value [1] was less than 8 mL/min/kg.
With `Cc1cc(-c2ccc(NC(=O)[C@@H](NC(=O)c3ccnn3CC3CC(F)(F)C3)C(C3CC3)C3CC3)nc2F)c(C)[n+]([O-])c1` [Example 32, N-[(1S)-1-(dicyclopropylmethyl)-2-[[5-(2,5-dimethyl-1-oxido-pyridin-1-ium-3-yl)-6-fluoro-2-pyridyl]amino]-2-oxo-ethyl]-2-[(3,3-difluorocyclobutyl)methyl]pyrazole-3-carboxamide] the “HLM Clapp” value [1] was 23 mL/min/kg.
For `Cc1cc(-c2ccc(NC(=O)[C@@H](NC(=O)c3ccnn3CC3CC3)C(C3CC3)C3CC3)nc2F)c(C)[n+]([O-])c1` [Example 29, 2-(cyclopropylmethyl)-N-[(1S)-1-(dicyclopropylmethyl)-2-[[5-(2,5-dimethyl-1-oxido-pyridin-1-ium-3-yl)-6-fluoro-2-pyridyl]amino]-2-oxo-ethyl]pyrazole-3-carboxamide], the “HLM Clapp” value [1] was 8 mL/min/kg.
